Measured values as given in US20090054454A1, “BENZOFURANYL- AND BENZOTHIENYL- PIPERAZINYL QUINOLINES AND METHODS OF THEIR USE” (priority 2007, published 2009).
Where a name gives a salt, the structure may show the parent alone.

How the values were obtained:
Human 5-HT Transporter = Human 5-HT Transporter (Homo sapiens, UniProt P31645); experiment: Inhibition of 3H-5-HT Uptake by Cells Possessing the Human 5-HT Transporter (HC 5HT Transporter), Jar cells; conditions: HC-5HTC Transporter Ki (nM), Jar cells treated with staurosporine
Sequence of Human 5-HT Transporter (P31645 whole entry): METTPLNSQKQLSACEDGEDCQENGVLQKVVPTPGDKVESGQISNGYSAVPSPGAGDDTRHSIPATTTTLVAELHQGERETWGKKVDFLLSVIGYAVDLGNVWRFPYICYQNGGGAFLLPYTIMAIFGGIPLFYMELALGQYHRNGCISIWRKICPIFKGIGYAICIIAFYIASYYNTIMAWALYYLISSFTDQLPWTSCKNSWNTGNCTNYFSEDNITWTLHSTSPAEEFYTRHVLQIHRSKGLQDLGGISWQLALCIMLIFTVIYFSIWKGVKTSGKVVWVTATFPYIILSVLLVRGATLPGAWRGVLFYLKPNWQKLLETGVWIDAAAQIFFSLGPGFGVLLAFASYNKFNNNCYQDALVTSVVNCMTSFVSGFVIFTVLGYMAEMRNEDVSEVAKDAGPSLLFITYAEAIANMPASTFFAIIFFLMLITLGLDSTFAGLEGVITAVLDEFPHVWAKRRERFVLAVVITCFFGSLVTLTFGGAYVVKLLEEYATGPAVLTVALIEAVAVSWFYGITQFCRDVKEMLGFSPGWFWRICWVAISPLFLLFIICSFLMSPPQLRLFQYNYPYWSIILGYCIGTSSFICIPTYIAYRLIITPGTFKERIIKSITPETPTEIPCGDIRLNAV

Row | SMILES | Ki (Human 5-HT Transporter) [nM] | melting point [°C]
1 | COc1cc(N2CCN(CCc3coc4ccc(OC)cc34)CC2)c2ncccc2c1 [Compound 25, 8-{4-[2-(5-methoxy-1-benzofuran-3-yl)ethyl]-1-piperazinyl}-6-methoxy-quinoline] | 210 | –
2 | Cc1cc(N2CCN(CCc3coc4ccc(Cl)cc34)CC2)c2ncccc2c1 [Compound 14, 8-{4-[2-(5-chloro-1-benzofuran-3-yl)ethyl]-1-piperazinyl}-6-methyl-quinoline] | 9.82 | –
3 | COc1cccc2c(C(C)CN3CCN(c4cc(Cl)cc5cccnc45)CC3)coc12 (stereo not shown) (as salt: HCl) [Compound 33, 8-{4-[2-(7-methoxy-1-benzofuran-3-yl)propyl]-1-piperazinyl}-6-chloro-quinoline] | – | 55 to 58
4 | Fc1cc(N2CCN([C@H]3CC[C@@H](c4coc5ccccc54)CC3)CC2)c2ncccc2c1 [Compound 55, 8-{4-[4-cis(1-benzofuran-3-yl)cyclohexyl]-1-piperazinyl}-6-fluoroquinoline] | 472 | –
5 | COc1ccc2occ([C@H]3CC[C@@H](N4CCN(c5ccc(Cl)c6cccnc56)CC4)CC3)c2c1 [Compound 65, 5-chloro-8-{4-[4-cis(5-methoxy-1-benzofuran-3-yl)cyclohexyl]piperazin-1-yl}quinoline] | 53 | –
6 | COc1cc(N2CCN([C@H]3CC[C@H](c4csc5ccc(F)cc54)CC3)CC2)c2ncccc2c1 [Compound 50, 6-methoxy-8-{4-[4-trans(5-fluoro-1-benzothien-3-yl)cyclohexyl]piperazin-1-yl}quinoline] | 65.3 | –
7 | Cc1cc(N2CCN(CCc3coc4ccccc34)CC2)c2ncccc2c1 [Compound 3, 8-{4-[2-(1-benzofuran-3-yl)ethyl]-1-piperazinyl}-6-methylquinoline] | 75.6 | –
8 | COc1ccc2c(CCN3CCN(c4cc(C)cc5cccnc45)CC3)coc2c1 [Compound 10, 8-{4-[2-(6-methoxy-1-benzofuran-3-yl)ethyl]-1-piperazinyl}-6-methyl-quinoline] | 206 | –
9 | COc1ccc2occ([C@H]3CC[C@H](N4CCN(c5ccc(Cl)c6cccnc56)CC4)CC3)c2c1 [Compound 66, 5-chloro-8-{4-[4-trans(5-methoxy-1-benzofuran-3-yl)cyclohexyl]piperazin-1-yl}quinoline] | 1200 | –
10 | Clc1cc(N2CCN(CCc3coc4ccc(Cl)cc34)CC2)c2ncccc2c1 [Compound 13, 8-{4-[2-(5-chloro-1-benzofuran-3-yl)ethyl]-1-piperazinyl}-6-chloro-quinoline] | 270 | –
11 | COc1cc(N2CCN(CCc3coc4ccc(F)cc34)CC2)c2ncccc2c1 [Compound 16, 8-{4-[2-(5-fluoro-1-benzofuran-3-yl)ethyl]-1-piperazinyl}-6-methoxy-quinoline] | 180 | –
12 | COc1ccc2occ(CC(C)N3CCN(c4cc(C)cc5cccnc45)CC3)c2c1 (stereo not shown) [Compound 40, 6-methyl-8-{4-[2-(5-methoxy-1-benzofuran-3-yl)-1-methylethyl)piperazin-1-yl]quinoline] | 549 | –
13 | COc1ccc2occ(CC(C)N3CCN(c4cc(Cl)cc5cccnc45)CC3)c2c1 (stereo not shown) [Compound 39, 6-chloro-8-{4-[2-(5-methoxy-1-benzofuran-3-yl)-1-methylethyl)piperazin-1-yl]quinoline] | 40.1 | –
14 | COc1cccc2c(CCN3CCN(c4cc(Cl)cc5cccnc45)CC3)coc12 (as salt: HCl) [Compound 20, 8-{4-[2-(7-methoxy-1-benzofuran-3-yl)ethyl]-1-piperazinyl}-6-chloro-quinoline] | – | 248
15 | COc1cccc2c(C(C)CN3CCN(c4cccc5cccnc45)CC3)coc12 (stereo not shown) [Compound 31, 8-{4-[2-(7-methoxy-1-benzofuran-3-yl)propyl]-1-piperazinyl}quinoline] | 9.53 | –
16 | Clc1ccc2c(CCN3CCN(c4cccc5cccnc45)CC3)coc2c1 [Compound 5, 8-{4-[2-(6-chloro-1-benzofuran-3-yl)ethyl]-1-piperazinyl}-quinoline] | 1.6 | –
17 | Fc1cc(N2CCN(CCc3coc4ccc(F)cc34)CC2)c2ncccc2c1 (as salt: HCl) [Compound 17, 8-{4-[2-(5-fluoro-1-benzofuran-3-yl)ethyl]-1-piperazinyl}-6-fluoro-quinoline] | – | 55
18 | COc1ccc2occ(CCN3CCN(c4cc(F)cc5cccnc45)CC3)c2c1 [Compound 26, 8-{4-[2-(5-methoxy-1-benzofuran-3-yl)ethyl]-1-piperazinyl}-6-fluoro-quinoline] | 51 | –
19 | COc1cc(N2CCN(CCc3coc4ccccc34)CC2)c2ncccc2c1 [Compound 4, 8-{4-[2-(1-benzofuran-3-yl)ethyl]-1-piperazinyl}-6-methoxyquinoline] | 612 | –
20 | COc1cccc2c1occ2[C@H]1CC[C@H](N2CCN(c3ccc(Cl)c4cccnc34)CC2)CC1 [Compound 64, 5-chloro-8-{4-[4-trans(7-methoxy-1-benzofuran-3-yl)cyclohexyl]piperazin-1-yl}quinoline] | 176 | –
21 | COc1ccc2occ(CCN3CCN(c4cc(C)cc5cccnc45)CC3)c2c1 [Compound 23, 8-{4-[2-(5-methoxy-1-benzofuran-3-yl)ethyl]-1-piperazinyl}-6-methyl-quinoline] | 182 | –
22 | CC(CN1CCN(c2cc(Cl)cc3cccnc23)CC1)c1coc2ccccc12 (stereo not shown) [Compound 28, 8-{4-[2-(1-benzofuran-3-yl)propyl]-1-piperazinyl}-6-chloro-quinoline] | 125 | –

Row | SMILES | Ki (Human 5-HT Transporter) [nM] | melting point [°C]
23 | COc1cc(N2CCN([C@H]3CC[C@@H](c4csc5ccc(F)cc54)CC3)CC2)c2ncccc2c1 [Compound 49, 6-methoxy-8-{4-[4-cis(5-fluoro-1-benzothien-3-yl)cyclohexyl]piperazin-1-yl}quinoline] | 659 | –
24 | CC(CN1CCN(c2cccc3cccnc23)CC1)c1coc2ccccc12 (stereo not shown) [Compound 27, 8-{4-[2-(1-benzofuran-3-yl)propyl]-1-piperazinyl}quinoline] | 51.9 | –
25 | COc1cc(N2CCN([C@H]3CC[C@H](c4cc5ccccc5s4)CC3)CC2)c2ncccc2c1 [Compound 71] | – | 193 to 194
26 | COc1ccc2c(CCN3CCN(c4cc(Cl)cc5cccnc45)CC3)coc2c1 [Compound 11, 8-{4-[2-(6-methoxy-1-benzofuran-3-yl)ethyl]-1-piperazinyl}-6-chloro-quinoline] | 540 | –
27 | Clc1ccc2occ(CCN3CCN(c4cccc5cccnc45)CC3)c2c1 [Compound 12, 8-{4-[2-(5-chloro-1-benzofuran-3-yl)ethyl]-1-piperazinyl}-quinoline] | 42.2 | –
28 | Clc1cc(N2CCN(CCc3coc4ccccc34)CC2)c2ncccc2c1 [Compound 2, 8-{4-[2-(1-benzofuran-3-yl)ethyl]-1-piperazinyl}-6-chloroquinoline] | 1710 | –
29 | COc1cccc2c1occ2[C@H]1CC[C@@H](N2CCN(c3ccc(Cl)c4cccnc34)CC2)CC1 [Compound 63, 5-chloro-8-{4-[4-cis(7-methoxy-1-benzofuran-3-yl)cyclohexyl]piperazin-1-yl}quinoline] | 124 | –
30 | COc1cccc2c(CCN3CCN(c4cc(Cl)cc5cccnc45)CC3)coc12 [Compound 20, 8-{4-[2-(7-methoxy-1-benzofuran-3-yl)ethyl]-1-piperazinyl}-6-chloro-quinoline] | 47.7 | –
31 | COc1cccc2c(C(C)CN3CCN(c4cc(C)cc5cccnc45)CC3)coc12 (stereo not shown) [Compound 32, 8-{4-[2-(7-methoxy-1-benzofuran-3-yl)propyl]-1-piperazinyl}-6-methyl-quinoline] | 58.2 | –
32 | COc1ccc2c(CCN3CCN(c4cccc5cccnc45)CC3)coc2c1 [Compound 9, 8-{4-[2-(6-methoxy-1-benzofuran-3-yl)ethyl]-1-piperazinyl}-quinoline] | 71.3 | –
33 | Fc1cc(N2CCN(CCc3coc4ccc(F)cc34)CC2)c2ncccc2c1 [Compound 17, 8-{4-[2-(5-fluoro-1-benzofuran-3-yl)ethyl]-1-piperazinyl}-6-fluoro-quinoline] | 50.9 | –
34 | Cc1cc(N2CCN(CC(C)c3coc4ccccc34)CC2)c2ncccc2c1 (stereo not shown) [Compound 30, 8-{4-[2-(1-benzofuran-3-yl)propyl]-1-piperazinyl}-6-methyl-quinoline] | 347 | –
35 | COc1cccc2c1occ2[C@H]1CC[C@H](N2CCN(c3ccc(F)c4cccnc34)CC2)CC1 [Compound 58, 5-fluoro-8-{4-[4-trans(7-methoxy-1-benzofuran-3-yl)cyclohexyl]-1-piperazinyl}quinoline] | 272 | –
36 | COc1cccc2c(CCN3CCN(c4cccc5cccnc45)CC3)coc12 [Compound 18, 8-{4-[2-(7-methoxy-1-benzofuran-3-yl)ethyl]-1-piperazinyl}-quinoline] | 9.46 | –
37 | CC(CN1CCN(c2cc(F)cc3cccnc23)CC1)c1coc2ccccc12 (stereo not shown) [Compound 29, 8-{4-[2-(1-benzofuran-3-yl)propyl]-1-piperazinyl}-6-fluoro-quinoline] | 115 | –
38 | Fc1cc(N2CCN(CCc3coc4cc(Cl)ccc34)CC2)c2ncccc2c1 [Compound 6, 8-{4-[2-(6-chloro-1-benzofuran-3-yl)ethyl]-1-piperazinyl}-6-fluoro-quinoline] | 1080 | –
39 | COc1cccc2c(C(C)CN3CCN(c4cc(Cl)cc5cccnc45)CC3)coc12 (stereo not shown) [Compound 33, 8-{4-[2-(7-methoxy-1-benzofuran-3-yl)propyl]-1-piperazinyl}-6-chloro-quinoline] | 183 | –
40 | COc1cccc2c(C(C)CN3CCN(c4cc(C)cc5cccnc45)CC3)coc12 (stereo not shown) [Compound 34, 8-{4-[2-(7-methoxy-1-benzofuran-3-yl)propyl]-1-piperazinyl}-6-methyl-quinoline] | 881 | –
41 | Fc1ccc2occ(CCN3CCN(c4cccc5cccnc45)CC3)c2c1 [Compound 15, 8-{4-[2-(5-fluoro-1-benzofuran-3-yl)ethyl]-1-piperazinyl}-quinoline] | 67.2 | –
42 | COc1cc(N2CCN(C(C)Cc3coc4c(OC)cccc34)CC2)c2ncccc2c1 (stereo not shown) [Compound 36, 6-methoxy-8-{4-[2-(7-methoxy-1-benzofuran-3-yl)-1-methylethyl)piperazin-1-yl]quinoline] | 31 | –
43 | Cc1cc(N2CCN(CCc3coc4cc(Cl)ccc34)CC2)c2ncccc2c1 [Compound 8, 8-{4-[2-(6-chloro-1-benzofuran-3-yl)ethyl]-1-piperazinyl}-6-methyl-quinoline] | 1780 | –
